Data reported in patent US9221781B2, “Synthesis of polyhydroxy chromenone compounds and their anti-tumor effects” (BEIJING SHENOGEN PHARMA GROUP LTD., priority 2012, dated 2015).

How the values were obtained:
MDA-MB-231 cells = assay: CellTiter-Glo Luminescent Cell Viability Assay on ER-negative breast cancer MDA-MB-231 cells in vitro; format: cell-based; conditions: Homo sapiens, 72 hours, read-out: Inhibition of viability of breast cancer cells IC50, MDA-MB-231 cells
Description: A: CellTiter-Glo® Luminescent Cell Viability Assay on ER-Negative Breast Cancer MDA-MB-231 In Vitro:
MDA-MB-231 cells were maintained at 37° C., in a 5% CO2 atmosphere in DMEM and 10% fetal calf serum. The cells were placed at a density of 6×10^3 cells per well in a 96-well plate. MDA-MB-231 cells were treated with a test compound dissolved in DMSO at the concentration of 0, 0.3 μM, 0.5 μM, 1 μM, 2 μM, 3 μM, 5 μM, 10 μM, 20 μM, 30 μM, 50 μM and 100 μM for 72 hours. Treated cells were examined under CellTiter-Glo® Luminescent Cell Viability Assay Kit (Promega), and luminescence were recorded with Envision.

HL-60 cells = assay: Inhibition of growth of acute myeloblastic leukemia HL-60 cells by MTT method; format: cell-based, human; conditions: Homo sapiens, 10^−6M, 72 hours, read-out: The inhibition percentage of cell proliferation by the compounds with a concentration of 10^−6M, HL-60 cells
Description: A: Inhibition of Growth of Acute Myeloblastic Leukemia HL-60 Cells by the Compounds Detected by MTT Method
The acute myeloblastic leukemia HL-60 cells from ATCC were maintained in IMDM and 10% fetal calf serum at 37° C. in a 5% CO2 atmosphere. The cells were subseeded in a 96-well culture plate at a concentration of 6×10^3 cells/well. HL-60 cells were treated with a test compound dissolved in DMSO at the concentration of 0, 10^−4M, 10^−5M, 10^−6M, 10^−7M, 10^−8M for 72 hours. OD value was tested by MTT method, and the inhibition ratio was calculated.

[1] = tested on: human endometrial cancer Ishikawa cells xenograft tumor; assay: Inhibition of growth of human endometrial cancer Ishikawa cells xenografts in nude mice; format: in vivo; conditions: FIG. 11
Description: Nude mice with Human endometrial cancer Ishikawa cells Xenograft Tumor were treated with the test compounds to test their effect on inhibiting tumor growth. Tumor was taken from nude mice with Ishikawa cells and cut into small pieces. Small pieces of tumor were implanted into the armpit under the right front limb of female nude mice. After the implantation, the mice were injected with E2β solution once a day at the dosage of 7 μg per mouse for 6 days to stimulate growth in the expriment mice. […] Medroxyprogesterone acetate was used as a positive control. Mixed oil was used as a negative control. The test compound was dispersed in mixed oil (20 mg/mL). […] Then the mice were sacrificed and the tumor tissues were dissected and weighed. The tumor growth inhibition rate was a percentage calculated using the formula: tumor growth inhibition rate=(average weight of the tumor in the negative control—average weight of the tumor treated with test compound) / average weight of the tumor in the negative control. The result is drawn as bar graph, referring to FIG. 11.

[2] = tested on: pancreatic cancer PANC-1 cells; assay: Inhibition of pancreatic cancer cells PANC-1 in vitro by MTT method; format: cell-based; conditions: Homo sapiens; PANC-1, MTT, 72 hours, FIG. 7; read-out: IC50, in vitro inhibition on cell line PANC-1 of pancreatic cancer
Description: A: Inhibition of Pancreatic Cancer Cells PANC-1 In Vitro by the Compounds by MTT Method
(§1) The pancreatic cancer PANC-1 cells were subseeded in a 96-well culture plate at a concentration of 3×10^3 cells/well and maintained in phenol red free 1640 medium containing 2.5% CS-FBS at 37° C. in a 5% CO2 atmosphere. PANC-1 cells were treated with a test compound dissolved in DMSO at the concentration of 0, 1, 2, 4, 8, 10 and 20 μM for 72 hours. OD value was tested by MTT method, and the inhibition percentage was calculated.

[3] = tested on: prostate cancer cells PC-3; assay: Inhibition of prostate cancer cells PC-3 in vitro by MTT method; format: cell-based; conditions: PC-3, MTT, 72 hours, FIG. 8; read-out: IC50, in vitro inhibition on cell line PC-3 of prostatic cancer
Description: A: Inhibition of Prostate Cancer Cells PC-3 In Vitro by the Compounds by MTT Method
as §1, with “cancer PC-3” for “cancer PANC-1”, “in” for “in phenol red free 1640”, “containing 10% F12K fetal bovine serum. PC-3” for “containing 2.5% CS-FBS at 37° C. in a 5% CO2 atmosphere. PANC-1”, “with the” for “with a”

Daudi cells = assay: Inhibition of human B lymphoma Daudi cells by CellTiter-Glo Luminescent Assay in vitro; format: cell-based; conditions: Homo sapiens, 72 hours, read-out: Inhibition of viability of cells in vitro IC50, Daudi cells
Description: A: Inhibition of Human B Lymphoma Daudi Cells by CellTiter-Glo® Luminescent Assay In Vitro
The Human B Lymphoma Daudi cells from ATCC were maintained in IMDM and 10% fetal calf serum at 37° C. in a 5% CO2 atmosphere. The cells were subseeded in a 96-well culture plate at a concentration of 6×10^3 cells/well. Human B Lymphoma Daudi cells were treated with a test compound dissolved in DMSO at the concentration of 0, 0.3 μM, 0.5 μM, 1 μM, 2 μM, 3 μM, 10 μM, 20 μM, 30 μM, 50 μM and 100 μM for 72 hours. Treated cells were examined by CeliTiter-Glo® Luminescent Cell Viability Assay Kit (Promega), and luminescence were recorded with Envision.

[4] = tested on: human breast cancer BCAP-37 xenograft tumor; assay: Inhibition of growth of human breast cancer BCAP-37 cells xenograft tumor in nude mice; format: in vivo; conditions: BCAP-37 tumor bearing nude mice, 0.7 mg/mouse/day, 20 days of continuous administration, FIG. 9
Description: Nude mice with breast cancer xenografts were treated with the test compounds to test their effect on inhibiting tumor growth. Tumor tissues were taken from nude mice bearing BCAP-37 breast cancer and cut into small pieces. Several pieces of the tumor tissues were implanted into the armpit under the right front limb of female nude mice. After the implantation, the mice are fed with E2β solution once a day at the dosage of 7 μg per mouse for 6 days to stimulate growth of tumor in the experiment mice. Starting on the seventh day, the mice were intragastric administered with the test solution containing the compounds and corn oil at the dosage of 35 mg/kg. Tamoxifen was used as a positive control. Corn oil was used as a negative control. The test solution was prepared by dispersing test compound in corn oil solution. (20 mg/mL). […] Then the mice were sacrificed and the tumor tissues were dissected and weighed. The tumor growth inhibition rate was a percentage calculated using the formula: tumor growth inhibition rate=(average weight of the tumor in the negative control−average weight of the tumor treated with test compound)/average weight of the tumor in the negative control.

- IC50 (MDA-MB-231 cells): 1.07 µM
- IC50 [2]: 1 to 4 µM
- IC50 [3]: 1 to 4 µM
- IC50 (Daudi cells): 0.824 µM
Compound: CC(C)=CCc1c(O)cc(O)c2c(=O)c(O)c(-c3ccc(C(F)(F)F)cc3)oc12 [Compound 1, 2-(4-trifluoromethylphenyl)-3,5,7-trihydroxy-8-(3-methyl-2-buten-1-yl)-4H-chromen-4-one]
- inhibition at 1 µM (HL-60 cells): 60.7%
- average tumor weight, inhibition on tumor growth ([1]; Ishikawa bearing nude mice, 17.5, 35 and 70 mg/kg, 20 days of continuous administration): dominant inhibition on tumor growth
- inhibition effect compared with control drug DMPA ([1]; Ishikawa bearing nude mice, versus DMPA 120 mg/kg, 20 days): higher than control drug
- average tumor weight, inhibition on the tumors [4]: inhibition of compound on the tumors
